Laboratory results: patent US4690935A, “Inhibition of tumor growth and metastasis with calcium channel blocker compounds” (Wayne State University, priority 1983, dated 1987)
“Also recorded” adds a separate entry of the source.

How the values were obtained:
B16a Tumor Cells = assay: In vitro proliferation of B16a tumor cells; assay type: cell-based, mouse; settings: for effect on tumor cell proliferation (in words): B16a cells, 10-40 micrograms/ml, five day assay
Experimental: Proliferation studies were designed to measure the effects of BAY e 9736 on the proliferation of B16 a tumor cells. B16a tumor cells were plated into T-25 flasks (4×10^4 cells/flask) and allowed to grow at 37° C. for 16 hours. The media was removed from the flasks and plating efficiency was determined using a Coulter counter. Replacement media was added to the flasks, which were allowed to incubate for 24 hours. After the 24 hour incubation, 10 microliters of control (media), DMSO, or BAY e 9736 in DMSO (40 mg/ml stock) was added to the flasks. Media replacement with and without BAY e 9736 were performed every 24 hours for 4 consecutive days. Control flasks (3) were terminated every day of the proliferation study with 4 terminated on the final day.
A 40 mg aliquot of BAY e 9736 was dissolved in 1 milliliter dimethyl sulfoxide (DMSO). Aliquots of this 40 mg/ml stock were diluted with DMSO to final concentrations of 20 and 10 mg/ml. At day two and each successive day, 10 microliter aliquots of 40, 20, and 10 mg/ml BAY e 9736 were added once a day to the new media of flasks containing proliferating B16a tumor cells as previously described.

[1] = test system: Walker 256 L-Pam tumor cell; assay: Walker 256 L-Pam tumor cell attachment to plastic; assay type: cell-based, rat; settings: 0.04 mg/ml; for effect on tumor cell adhesion to plastic wells (in words): thirty minutes preincubation; for inhibition at 40 µg/mL: Rattus norvegicus, Walker 256, 1 h, 1 h plating, read-out: % Inhibition vs control (attachment to plastic)
Experimental: (§1) Walker ^256 L-Pam tumor cells were plated at approximately 5×10^5 cells/flask. The cells were labelled with ^125 I-UDR (iodinated uridine deoxyribonucleic acid) at 0.5 microcuries/ml media (5.0 microcurie/flask). Cells were incubated for approximately 24 hours and the cell count/flask was determined to be 8.14×10^5 cell/flask. The cells from each flask were counted (gamma counter) and found to have an average of 0.24 cpm/cell.
(§2) Platelet enhanced tumor cell attachment to plastic was tested using four conditions: tumor cell alone (Condition A), tumor cells plus washed platelets (Condition B), tumor cells plus platelet poor plasma (Condition C) and tumor cells, washed platelets and platelet poor plasma (Condition D).
(§3) Walker 256 L-Pam tumor cells obtained from culture are radiolabeled with ^125 I-UDR as described previously. The radiolabeled cells are removed from T-75 flasks with trypsin (2 milliliters of 0.25% trypsin and 0.01% EDTA) in MEM. After two minutes, the flasks are washed 3X with trypsin "quench," 10% fetal calf serum in MEM, to quench and remove the trypsin in order to prevent cell lysis. The tumor cells are removed from the flasks in MEM and adjusted to 2.5×10^5 cells /milliliter. One hundred microliters of the tumor cell suspension (2.5×10^4 cells) were plated in […] tissue culture wells (Costar) and overlaid with 250 microliters of Wash Solution #2 (see Platelet Prep). The cells were incubated at room temperature (approximately 22° C.) for 5 minutes. Following this incubation 10 microliters of 7.35 mg/ml CaCl2 were added to the culture wells, 10 microliters of platelet poor plasma (diluted 1:32 with platelet Wash Solution #2) were added to culture wells for Conditions C and D and 250 microliters of washed platelets (3×10^8 /ml final concentration) were added to culture wells for Conditions B and D. Where appropriate, Wash Solution #2 was added to wells (Conditions A and C) so that all wells had the same final volume of solutions. The wells were incubated for one hour at 37° C. After the one hour incubation, the media containing any unattached tumor cells were removed by aspiration and then the wells were washed 2X with 1 ml of sodium phosphate buffer (PBS). The adhering cells were removed by trypsinization (as described above) and counts per wells determined using a gamma counter. Results were determined as total cpm plated per well.
The effect of BAY e 9736 on Walker 256 L-Pam tumor cell adhesion to plastic wells […] was determined by pretreating monodispersed Walker 256 L-Pam tumor cells with BAY e 9736 dissolved in DMSO prior to plating the cells. Except for the pretreatment, plastic adhesion studies were performed as previously described in the literature. A 8 mg sample of BAY e 9736 was dissolved in 1 ml of DMSO. Five microliters of the 8 mg/ml BAY e 9736 was added to each 1 ml of tumor cells.

[2] = test system: Walker 256 L-Pam tumor cell; assay: Walker 256 L-Pam tumor cell attachment to virally transformed endothelial cell monolayer (RCE-T1); assay type: cell-based, rat; settings: 0.04 mg/ml; for effect on tumor cell adhesion to endothelial cell monolayer (in words): thirty minutes preincubation; for inhibition at 40 µg/mL: Rattus norvegicus, Walker 256, 1 h, 1 h plating, x ± SEM, n = 4, read-out: % Inhibition vs Control (attachment to endothelial cells)
Experimental: as §1, §2, §3
Platelet enhanced tumor cell attachment to a virally transformed endothelial cell monolayer (on plastic wells) was also tested. The experimental protocal utilized was similar to that described above. The only significant difference is that in the above assay the floor of each incubation well is the plastic material of the plate, and in these assays, that plastic floor is covered with a confluent monolayer of virally transformed rat cerebral microvascular endothelial cells. The cells were prepared and plated as described in detail in Laboratory Investigations, Vol 46, No. 6, […], 1982 (Diglio, C. A., Grammas, P., Giacomelli, F., and Wiener, J., Lab. Investigations Vol 46, No. 6, p554-563, 1982) and in J. Cell. Biol (Manuscript accepted 3/83) (Diglio, C., Wolfe, D. E., and Meyers, P. J. Cell. Biol. manuscript in press, 1983). Briefly, rat endothelial cells were dispersed from […] microvasculature by collagenase treatment. Migrating cells and cell proliferation are seen. Isolated cells are allowed to proliferate in culture until the expected "cobblestone" appearance characteristic of normal endothelial cells is obtained.
Cultured (subconfluent) normal endothelial cells are infected with Schmidt-Ruppin Rous Sarcoma virus-strain D (SR-RSV-D). A single transformed focus was isolated and recultured. The resulting transformed endothelial cell line was designated RCE-T1 (also known as SR-D1).
In the actual assay, the protocol for tumor cell adhesion to plastic or transformed endothelial cell are similar. […]

[3] = D = tumor cells + PPP + platelets

SMILES: COCCOC(=O)C1=C(C)NC(C)=C(C(=O)OC(C)C)C1c1cccc([N+](=O)[O-])c1 (stereo not drawn) [BAY e 9736, 1,4-dihydro-2,6-dimethyl-4-(3' nitrophenyl)-pyridine-3-(beta-methyoxyethylester)-5-(isopropyl ester)]
- effect on tumor cell proliferation (in words) (B16a Tumor Cells): inhibits tumor cell proliferation
- effect on tumor cell proliferation (in words) (B16a Tumor Cells; listed as nimodipine): decreases the rate of tumor cell growth over a five day assay period
- activity at 10 µg/mL (B16a Tumor Cells; Mus musculus, .01 mg/ml, drug readded once daily, x ± SEM, n = 4, read-out: % of Control Tumor Cell Number): 50 ± 5%
- activity at 20 µg/mL (B16a Tumor Cells; Mus musculus, .02 mg/ml, drug readded once daily, x ± SEM, n = 4, read-out: % of Control Tumor Cell Number): 25 ± 5%
- activity at 40 µg/mL (B16a Tumor Cells; Mus musculus, .04 mg/ml, drug readded once daily, x ± SEM, n = 4, read-out: % of Control Tumor Cell Number): 14 ± 3%
- effect on tumor cell adhesion to plastic wells (in words) [1]: decreased the percent of cells adhering to the plastic wells; also recorded: significant in all groups tested
- effect on tumor cell adhesion to plastic wells (in words) ([1]; listed as nimodipine): decreases or inhibits the adhesion of tumor cells to plastic incubation wells
- inhibition at 40 µg/mL ([1]; A = tumor cells alone): 72%
- inhibition at 40 µg/mL ([1]; B = tumor cells + platelets): 50 ± 8.2%
- inhibition at 40 µg/mL ([1]; C = tumor cells + PPP): 44 ± 9.2%
- inhibition at 40 µg/mL [1, 3]: 40 ± 7.5%
- effect on tumor cell adhesion to endothelial cell monolayer (in words) [2]: decreased the percent of cells adhering to the plastic wells as well as the endothelial cell monolayer; also recorded: significant in all groups tested
- effect on tumor cell adhesion to endothelial cell monolayer (in words) ([2]; listed as nimodipine): decreases or inhibits the adhesion of tumor cells to plastic incubation wells and to virally transformed endothelial cell monolayers
- inhibition at 40 µg/mL ([2]; A = tumor cells alone): 50%
- inhibition at 40 µg/mL ([2]; B = tumor cells + platelets): 65 ± 7.8%
- inhibition at 40 µg/mL ([2]; C = tumor cells + PPP): 60 ± 5%
- inhibition at 40 µg/mL [2, 3]: 53 ± 5.5%
